In PubChem BioAssay (NCI):
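Protocol summary: plate cells (96-well), add compound at 5 concentrations, incubate 48 h, interpolate endpoints linearly. GI50 marks 50% less growth. The concentration for full growth arrest is given as TGI.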

Tests used:
Assay in all cases: NCI-60 cell line screen, 48 h
786-0 renal = tested on: 786-0 renal
A498 renal = tested on: A498 renal
A549 NSCLC = tested on: A549 NSCLC
ACHN renal = tested on: ACHN renal
BT-549 breast = tested on: BT-549 breast
CAKI-1 renal = tested on: CAKI-1 renal
CCRF-CEM leukemia = tested on: CCRF-CEM leukemia
COLO 205 colon = tested on: COLO 205 colon
DU-145 prostate = tested on: DU-145 prostate
HCC-2998 colon = tested on: HCC-2998 colon
HCT-116 colon = tested on: HCT-116 colon
HCT-15 colon = tested on: HCT-15 colon
HL-60(TB) leukemia = tested on: HL-60(TB) leukemia
HOP-62 NSCLC = tested on: HOP-62 NSCLC
HOP-92 NSCLC = tested on: HOP-92 NSCLC
HS 578T breast = tested on: HS 578T breast
HT29 colon = tested on: HT29 colon
IGROV1 ovarian = tested on: IGROV1 ovarian
K-562 leukemia = tested on: K-562 leukemia
KM12 colon = tested on: KM12 colon
LOX IMVI melanoma = tested on: LOX IMVI melanoma
M14 melanoma = tested on: M14 melanoma
MALME-3M melanoma = tested on: MALME-3M melanoma
MCF7 breast = tested on: MCF7 breast
MDA-MB-231 breast = tested on: MDA-MB-231 breast
MDA-MB-435 = tested on: MDA-MB-435
MOLT-4 leukemia = tested on: MOLT-4 leukemia
NCI-H226 lung = tested on: NCI-H226 lung
NCI-H23 lung = tested on: NCI-H23 lung

O=C1NC(=NCCc2cccc(F)c2)S/C1=C\c1ccc2ncccc2c1
GI50 (786-0 renal): 7.15 µM
TGI (786-0 renal): > 25 µM
GI50 (A498 renal): 3.89 µM
TGI (A498 renal): > 25 µM
GI50 (A549 NSCLC): 1.55 µM
TGI (A549 NSCLC): > 25 µM
GI50 (ACHN renal): 10.2 µM
TGI (ACHN renal): > 25 µM
GI50 (BT-549 breast): 10.6 µM
TGI (BT-549 breast): > 25 µM
GI50 (CAKI-1 renal): 2.43 µM
TGI (CAKI-1 renal): > 25 µM
GI50 (CCRF-CEM leukemia): 1.15 µM
TGI (CCRF-CEM leukemia): > 25 µM
GI50 (COLO 205 colon): 1.43 µM
TGI (COLO 205 colon): > 25 µM
GI50 (DU-145 prostate): 10.1 µM
TGI (DU-145 prostate): > 25 µM
GI50 (HCC-2998 colon): > 25 µM
TGI (HCC-2998 colon): > 25 µM
GI50 (HCT-116 colon): 1.3 µM
TGI (HCT-116 colon): > 25 µM
GI50 (HCT-15 colon): 0.77 µM
TGI (HCT-15 colon): > 25 µM
GI50 (HL-60(TB) leukemia): 2.08 µM
TGI (HL-60(TB) leukemia): > 12.9 µM
GI50 (HOP-62 NSCLC): 2.15 µM
TGI (HOP-62 NSCLC): > 25 µM
GI50 (HOP-92 NSCLC): > 25 µM
TGI (HOP-92 NSCLC): > 25 µM
GI50 (HS 578T breast): 10.6 µM
TGI (HS 578T breast): > 25 µM
GI50 (HT29 colon): 1.05 µM
TGI (HT29 colon): > 25 µM
GI50 (IGROV1 ovarian): 5.15 µM
TGI (IGROV1 ovarian): > 25 µM
GI50 (K-562 leukemia): 1.01 µM
TGI (K-562 leukemia): > 25 µM
GI50 (KM12 colon): 1.07 µM
TGI (KM12 colon): > 25 µM
GI50 (LOX IMVI melanoma): 1.75 µM
TGI (LOX IMVI melanoma): > 25 µM
GI50 (M14 melanoma): 3.6 µM
TGI (M14 melanoma): > 25 µM
GI50 (MALME-3M melanoma): 17.2 µM
TGI (MALME-3M melanoma): > 25 µM
GI50 (MCF7 breast): 0.766 µM
TGI (MCF7 breast): > 25 µM
GI50 (MDA-MB-231 breast): > 25 µM
TGI (MDA-MB-231 breast): > 25 µM
GI50 (MDA-MB-435): 0.312 µM
TGI (MDA-MB-435): 1.19 µM
GI50 (MOLT-4 leukemia): 8.72 µM
TGI (MOLT-4 leukemia): > 25 µM
GI50 (NCI-H226 lung): > 12.9 µM
TGI (NCI-H226 lung): > 25 µM
GI50 (NCI-H23 lung): 19.2 µM
